Laboratory results as given in patent publication US20070004652A1, “Treatment of occlusive thrombosis” (Mars, Incorporated, priority 2005, published 2007).
“Also recorded” adds a separate entry of the source.

Experiments:
[1] = test system: human endothelial cells; assay: Genomic investigation (Affymetrix microarray, Taqman validation) of gene expression of human endothelial cells; type: cell-based; conditions: human endothelial cells in vitro and human plasma
From the text: We have employed a genomic approach to comprehensively investigate the effects of (−)-epicatechin (including a mixture of (−)-epicatechin metabolites), procyanidin dimer B1, and procyanidin dimer A2 on the gene expression of human endothelial cells in vitro. Following the completion of an extensive evaluation utilizing an Affymetrix Oligonucleotide Microarray Gene Expression Analysis System, we have subsequently validated our findings using Taqman® Gene Expression Assays, and confirmed the ensuing data by directly assessing amounts or activities of the target proteins in cultured human endothelial cells and human plasma, respectively.

[2] = Closure time after ingestion by human volunteers; type: in vivo; conditions: FIG. 4
[3] = test system: total PAI in HUVEC medium; assay: Total PAI (free and tPA/uPA-bound) in HUVEC culture medium; type: cell-based, human; conditions: 24 h, 5 μM as compared to 1 μM, FIG. 3
Description: (§1) HUVEC cultures were established as detailed above, by seeding HUVEC into fibronectin-coated 6 well plates at a seeding density of 5000 cells/cm^2. Cells were cultured without sub-culturing using standard cell culture conditions. 50% of the medium was replaced with fresh medium every 24 h. Following an incubation of the HUVECs with the TC at a concentration of 5 μM for 24 h, an aliquote of the media was collected and analyzed for its content of tPA, and PAI, respectively. The remaining medium was collected and the weight was recorded for subsequent activity calculations (for calculation purposes we assumed that 1 g of medium=1 mL). tPA and PAI release was measured as the activity of the respective proteins in the collected media using an ELISA-based assay [Innovative Research Inc., Southfield, Mich., USA] in accordance with the manufacturer's instructions.

[4] = test system: plasma tPAtotal; assay: Plasma tPAtotal (free and bound tPA) after ingestion by human volunteers; type: in vivo; conditions: raw data, One Way ANOVA P=0.769
Description: (§2) The test compound was administered to human volunteers in accordance with IRB-approved protocols and as detailed in the previous section of this report. The activity of tPA, uPA, and PAI in plasma was measured using an ELISA-based assay [Innovative Research Inc., Southfield, Mich., USA] in accordance with the manufacturer's instructions.
In addition to measurements of plasma tPA activity, we determined the amount of tPAtotal in plasma (tPAtotal=free and bound tPA).

[5] = test system: plasma uPA; assay: Plasma uPA activity after ingestion by human volunteers; type: in vivo; conditions: raw data
Description: as §2

[6] = test system: PAI release from HUVEC; assay: PAI activity in HUVEC culture medium (ELISA-based assay); type: cell-based, human; conditions: 24 h, not quite statistically significant (P=0.061, One Way ANOVA)
Description: as §1

[7] = test system: tPA release from HUVEC; assay: tPA release from HUVEC, tPA activity in culture medium (ELISA-based assay); type: cell-based, human
Description: as §1, with “Following an incubation of the HUVECs with the TC at a concentration of 5 μM for 24 h, an aliquote of the media was collected and analyzed for its content of tPA, and PAI, respectively.” left out

[8] = test system: uPA mRNA expression in human umbilical vein endothelial cells (HUVEC); assay: Taqman gene expression assay, uPA mRNA in HUVEC; type: cell-based; conditions: 5 μM, 0.5 to 24 hours, FIG. 1B
Description: (§3) Human umbilical vein endothelial cells (HUVEC) were cultured in an endothelium-specific, 2% serum-containing, growth factor-supplemented, antibiotic-free culture medium. Cryo-preserved cells from a single, donor in passage 1 or 2 were directly seeded into fibronectin-coated 6 well plates at a seeding density of 5000 cells/cm^2 and cultured without sub-culturing using standard cell culture conditions. 50% of the medium was replaced with fresh medium every 24 h until confluence. Cells were treated with the B1 dimer at a final concentration of μ5 M for 0.5, 2, 4, and 24 hours, respectively, and mRNA was isolated with a Qiagen mRNA Isolations System. cDNA was synthesized from mRNA samples using a HPLC-purified T7 Oligo(dT) primer and SuperScript II reverse transcriptase enzyme (Invitrogen). The ensuing cDNA samples were purified using a Qiagen PCR purification system. The cDNA templates were added to standardized Taqmang® Gene Expression Assays (Applied Biosystems) reactions mixtures and a Real-Time PCR was performed using standardized thermo-cycling conditions. An absolute quantification method of analyzing gene expression levels was used on triplicate reactions of each sample, and amplification plots generated by the Applied Biosystems 7900HT Fast Real-Time PCR System were analyzed using ABI Prism SDS v2.1 software.

[9] = test system: tPA mRNA expression in human umbilical vein endothelial cells (HUVEC); assay: Taqman gene expression assay, tPA mRNA in HUVEC; type: cell-based; conditions: 5 μM, 0.5 to 24 hours, FIG. 1A
Description: as §3

[10] = test system: plasma PAI; assay: Plasma PAI activity after ingestion by human volunteers; type: in vivo
Description: as §2

[11] = test system: PAI mRNA expression in human umbilical vein endothelial cells (HUVEC); assay: Taqman gene expression assay, PAI mRNA in HUVEC; type: cell-based; conditions: 5 μM, 0.5 to 24 hours, FIG. 1C
Description: as §3

[12] = test system: plasma tPA; assay: Plasma tPA activity after ingestion by human volunteers; type: in vivo; conditions: for plasma tPA activity, time course: non-transformed (raw) data
Description: as §2

Row | Structure (SMILES) | expression, secreting or activity of various proteins related to cardiovascular function [1] | closure time as compared to vehicle (water) [2] | total PAI (free and tPA/uPA-bound) in medium [3] | plasma tPAtotal levels, time-dependent change [4] | plasma uPA activity, time-dependent change [5] | activity of PAI in the media [6] | increases in media-present tPA activity versus vehicle ([7]; 24 h, 5 μM and 10 μM, One Way ANOVA followed by Tukey Test) | tPA activity in the cell culture medium ([7]; 24 hours of incubation, different concentrations, FIG. 2) | mRNA expression for uPA [8] | mRNA expression for tPA [9] | plasma PAI activity, time-dependent change ([10]; raw data) | PAI plasma activity, normalized to individual baselines ([10]; statistical significance at 4 h post-ingestion (P=0.011, t-test)) | expression of PAI mRNA [11] | increase in tPAmax (mean maximal increase in plasma tPA activity) ([12]; n=4) | mean tPAmax ([12]; n=4) | plasma tPA activity, time course ([12]; One Way ANOVA P=0.333) | plasma tPA activity, time course ([12]; One Way ANOVA P=0.333, listed as B1)
1 | Oc1cc(O)c2c(c1)O[C@H](c1ccc(O)c(O)c1)[C@H](O)C2 [(−)-epicatechin] | modulated | – | – | – | – | – | – | – | – | – | – | – | – | – | – | – | –
2 | Oc1cc(O)c2c(c1)O[C@@]1(c3ccc(O)c(O)c3)Oc3cc(O)c4c(c3[C@@H]2[C@H]1O)O[C@H](c1ccc(O)c(O)c1)[C@H](O)C4 [A2 dimer, epicatechin-(4β→8; 2β→O→7)-epicatechin] | modulated | – | – | – | – | – | – | – | – | – | – | – | – | – | – | – | –
3 | Oc1cc(O)c2c(c1)O[C@H](c1ccc(O)c(O)c1)[C@H](O)[C@H]2c1c(O)cc(O)c2c1O[C@H](c1ccc(O)c(O)c1)[C@@H](O)C2 [B1 dimer, procyanidin dimer B1] | modulated | augmentation of the closure time | modulate; also recorded: increase in total PAI | neither the ingestion of the B1 dimer nor that of the vehicle caused a time-dependent change | did not cause a statistically significant, time-dependant change | dose-dependant decrease | significantly different from vehicle treatments | dose-dependent increase; also recorded: increase in tPA activity | time-dependent increases | time-dependent increases | did not cause a statistically significant, time-dependant change | time-dependently decreased | decreases | 46% | 261.4+/−39.4 mU/mL | time-dependent increase | increases plasma tPA activity
